Experimental data reported in patent US12133836B2, “Reduction of adipose tissue” (10XBIO, LLC, priority 2015, dated 2024).

How the values were obtained:
[1] = tested on: fat tissue; experiment: Co-solvent injected with polidocanol (tolerability, uniformity of fat necrosis); assay type: in vivo; conditions: as co-solvent
[2] = tested on: skin tissue; experiment: Skin adverse events (skin necrosis) after subcutaneous injection into the inguinal fat pad; assay type: in vivo, LVG Syrian Golden Hamsters
Excerpt: (§1) Model: The inguinal fat pads were used as a model tissue. In the golden hamster, these subcutaneous fat pads lying bilaterally in the inguinal region were continuous with fat pads located laterally on each respective flank, and thus were referenced here as inguinal-lateral fat pads or ILFPs. The length of each fat pad offered the opportunity for two injections spaced approximately […] within each fat pad, and similarly placed control injections in the contralateral fat pad of the same animal. The unilateral experimental treatment in this model offered the advantage of paired comparison of treated and non-treated fat pads within individual animals, and served as a model to assess lipolytic effects of test compounds.
(§2) Test Articles: Polidocanol: Solutions provided by Advantar (or other), 0.5%, 1.25%, and 2.0%, formulated with propylene glycol.
(§3) Treatment: Under isoflurane anesthesia, the right ILFP was injected with 0.2 cc of drug solution at two sites (medial and lateral portions of the ILFP), spaced 0.5 cm apart. The left ILFP was injected in medial and lateral sites with filtered vehicle control solution. A total of 36 animals were divided into three dose groups, outlined in the following table:
(§4) The animals were injected percutaneously with 0.2 mL/injection of test article solution at up to four (4) sites (in the medial, central, and lateral portions of the ILFP) running superiorly to caudally, spaced 0.5 cm apart. The injections were carried out by inserting the needle into the right inguinal region, locating the tip of the needle in the middle of the fat pad between the peritoneal wall and the right leg. In hamsters, the fat could be roughly visualized as a light area beneath the skin. The tip of the needle was at a depth adequate to enter the inguinal fat (as discerned by the thickness of tissue when the needle tip is raised slightly upward while in its final position) while avoiding the leg muscle and the peritoneum. The needle tip was placed approximately 0.5 cm medial to a line drawn from the patella of the knee to the xyphoid appendix of the sternum.

[3] = tested on: inguinal-lateral fat pad (ILFP); experiment: Effect of polidocanol on the inguinal-lateral fat pad (ILFP) of hamsters: fat weight analysis; assay type: in vivo, LVG Syrian Golden Hamsters
Excerpt: Concentration of polidocanol solutions: 0.5%, 1.25% and 2%; Deoxycholate dose concentration: 1.0%
Species: LVG Syrian Golden Hamsters, retired breeders
Body weight: 165-187 grams (on first day of treatment period); Sex: Male; Vendor: Charles River; Diet: Standard lab chow; Randomization: Animals were grouped so that the mean body weights are approximately equal among the treatment subgroups
as §1, §2, §3
Harvesting: On day 28 (injections at Day 0) and 56 (injections at Day 0 and Day 28), the animals were sacrificed and the ILFPs excised and weighed (see “INGUINAL/LATERAL FAT PAD HARVESTING PROCEDURE,” below). Medial and lateral portions of each ILFP were weighed together. After weighing, each portion was frozen separately on dry ice and stored frozen for histological analysis.
Fat weight analysis: Results were expressed primarily as the mean difference between the right and left ILFPs in grams (A R-L) and as the percent difference (A R-L %). Statistical analysis was performed.
as §4
With the animal lying ventral side up, skin was cut along abdominal midline from the umbilicus to a point caudal to the penis near the bottom of the scrotum. The skin was cut from the penile area in a posterior and lateral direction toward the posterior of the hindlimb. […] An elipse was harvested of skin overlying the region of the ILFP, and placed in formalin for storage and. […]

[4] = tested on: adipose tissue; experiment: Histological analysis of treated adipose tissue (H&E); assay type: in vivo, LVG Syrian Golden Hamsters; conditions: H&E stained sections
Method: Histological analysis: The right (polidocanol treated) medial injection sites of all six subjects, and one left (saline treated) site from each treatment group (animals #3 and #5), were analyzed histologically to determine evidence of necrosis within the adipose tissue. The selected samples were sectioned at a thickness of 20 microns taken at intervals of 0.5 mm through the tissue. The sections were mounted and stained with H&E and examined microscopically for evidence of necrosis or inflammation. Representative images of each tissue were recorded with a Carl Zeiss color camera.
In addition, there is a lymphomononuclear inflammatory infiltrate with macrophage phagocytosis of lipid cell debris.

CC(O)CO (centres unmarked) [propylene glycol, propane-1,2-diol]
irritation when injected with polidocanol [1]: non-irritating
patchy and incomplete fat tissue necrosis ([1]; relative to the absence of co-solvent): reduced amount of patchy and incomplete fat tissue necrosis

deoxycholate
animals that developed severe skin necrosis ([2]; 1% deoxycholate (3 of 5 animals)): 60%
skin necrosis side effect, number of animals ([2]; Deoxycholate 1%, Group 4 (FIG. 8C)): 3 of 5

polidocanol
visible change in inguinal fat pad fullness / inguinal crease (body contour) ([3]; FIG. 5A-5B): externally visible reduction in inguinal fat pad fullness
reductions in inguinal fat pad mass ([3]; polidocanol 0.5%, day 28 after a single treatment, formulated with propylene glycol): 15%
reductions in inguinal fat pad mass ([3]; polidocanol 1.25%, day 28 after a single treatment, formulated with propylene glycol): 15%
fat pad mass reductions ([3]; polidocanol 2.0%, day 28 after a single treatment, formulated with propylene glycol): 10%
reductions in fat pad mass relative to deoxycholate ([3]; same optimized dosing frequency, volume, and injection spacing (FIG. 3)): at least equivalent to deoxycholate
histopathology of treated adipose tissue [4]: dose dependent changes of fat cell necrosis and apoptosis
skin necrosis (proportion of animals) ([2]; 2% polidocanol): 33%
selectivity for fat tissue relative to skin tissue ([2]; FIG. 6): selectively destroys fat tissue relative to skin tissue
skin necrosis side effect, number of animals ([2]; Polidocanol 1.25%, Group 2A, moderate skin necrosis (FIG. 8A)): 1 of 9
skin necrosis side effect, number of animals ([2]; Polidocanol 2%, Group 3B, moderate skin necrosis (FIG. 8B)): 2 animals
side effects such as skin necrosis, inflammation, large subcutaneous fat droplets ([2]; polidocanol concentration greater than about 1.25%): higher proportion of side effects
animals with mild skin breakdown ([2]; polidocanol injection at 0.5% (1 of 9 animals)): 11%
animals with mild skin breakdown ([2]; polidocanol injection at 1.25% (1 of 9 animals)): 11%
